PMC8949931, “cADPR Does Not Activate TRPM2” (International Journal of Molecular Sciences, 2022)

Legend:
[1] = molecular target: T1, drTRPM2 (TRPM2 from zebrafish) (Danio rerio, UniProt A0A0R4IMY7); test: isothermal titration calorimetry (ITC), purified domain, […] °C; assay type: binding
T1 construct: isolated MHR1/2 domain, residues 1-419 of drTRPM2, N-terminal His6-tag
T1 sequence (A0A0R4IMY7 1-419): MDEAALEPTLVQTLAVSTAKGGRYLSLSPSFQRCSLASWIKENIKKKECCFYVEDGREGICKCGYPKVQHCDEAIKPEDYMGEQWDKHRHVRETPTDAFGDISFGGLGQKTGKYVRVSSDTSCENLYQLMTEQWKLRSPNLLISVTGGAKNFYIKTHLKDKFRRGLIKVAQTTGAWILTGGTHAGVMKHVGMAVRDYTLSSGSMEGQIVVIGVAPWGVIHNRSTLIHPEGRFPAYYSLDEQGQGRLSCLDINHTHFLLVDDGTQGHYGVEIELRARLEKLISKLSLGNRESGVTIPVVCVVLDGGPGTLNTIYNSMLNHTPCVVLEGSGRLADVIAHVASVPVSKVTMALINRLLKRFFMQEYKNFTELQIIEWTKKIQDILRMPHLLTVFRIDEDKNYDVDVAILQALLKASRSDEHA

human TRPM2 = molecular target: T2, human TRPM2 (Homo sapiens, UniProt O94759); test: whole-cell patch clamp, […] coinfused with […] ADPR; assay type: cell-based
T2 construct: full-length channel stably expressed in HEK293 cells
T2 sequence (O94759 whole entry, the tested form may be a part): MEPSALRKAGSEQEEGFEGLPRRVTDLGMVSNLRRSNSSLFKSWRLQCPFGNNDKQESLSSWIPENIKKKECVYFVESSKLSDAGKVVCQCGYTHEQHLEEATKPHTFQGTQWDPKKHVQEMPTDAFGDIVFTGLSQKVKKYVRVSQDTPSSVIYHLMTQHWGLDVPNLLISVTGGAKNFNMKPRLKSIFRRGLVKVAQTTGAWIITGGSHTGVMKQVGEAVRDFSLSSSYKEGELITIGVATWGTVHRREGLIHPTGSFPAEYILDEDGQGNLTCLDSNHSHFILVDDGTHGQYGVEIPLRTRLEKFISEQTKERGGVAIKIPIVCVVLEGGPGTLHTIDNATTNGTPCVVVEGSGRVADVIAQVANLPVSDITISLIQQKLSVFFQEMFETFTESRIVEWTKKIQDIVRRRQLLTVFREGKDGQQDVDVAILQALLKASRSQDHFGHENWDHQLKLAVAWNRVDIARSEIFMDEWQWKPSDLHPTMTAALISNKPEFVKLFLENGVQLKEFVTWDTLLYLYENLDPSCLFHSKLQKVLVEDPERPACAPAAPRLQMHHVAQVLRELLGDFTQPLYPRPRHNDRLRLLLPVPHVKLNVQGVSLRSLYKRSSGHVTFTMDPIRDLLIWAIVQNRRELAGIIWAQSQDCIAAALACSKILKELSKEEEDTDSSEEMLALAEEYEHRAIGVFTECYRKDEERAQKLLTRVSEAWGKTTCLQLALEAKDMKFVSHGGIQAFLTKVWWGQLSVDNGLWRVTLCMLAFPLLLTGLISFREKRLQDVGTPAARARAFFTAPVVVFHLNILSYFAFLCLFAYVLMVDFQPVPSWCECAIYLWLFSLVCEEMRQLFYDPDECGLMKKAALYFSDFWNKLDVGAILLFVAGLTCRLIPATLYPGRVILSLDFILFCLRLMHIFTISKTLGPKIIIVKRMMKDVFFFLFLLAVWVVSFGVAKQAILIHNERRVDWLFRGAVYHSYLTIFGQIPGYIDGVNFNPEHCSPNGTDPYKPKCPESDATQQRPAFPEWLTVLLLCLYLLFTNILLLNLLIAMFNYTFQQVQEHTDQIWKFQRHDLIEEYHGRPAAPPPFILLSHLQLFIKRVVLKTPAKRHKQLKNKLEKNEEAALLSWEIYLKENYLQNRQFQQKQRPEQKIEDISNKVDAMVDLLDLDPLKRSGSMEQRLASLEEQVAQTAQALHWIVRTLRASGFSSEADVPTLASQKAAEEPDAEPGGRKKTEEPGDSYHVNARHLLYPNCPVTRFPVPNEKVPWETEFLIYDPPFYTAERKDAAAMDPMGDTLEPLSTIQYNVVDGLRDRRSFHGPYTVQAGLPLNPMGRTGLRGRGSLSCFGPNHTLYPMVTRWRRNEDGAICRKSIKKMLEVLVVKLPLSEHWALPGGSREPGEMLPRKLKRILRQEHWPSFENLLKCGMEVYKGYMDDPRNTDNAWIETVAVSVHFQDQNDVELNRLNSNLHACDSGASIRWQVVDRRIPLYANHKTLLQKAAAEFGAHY

Row | Structure (SMILES) | Kd [1] [nM] | whole-cell patch clamp, 1 mM coinfused with 125 μM ADPR (human TRPM2)
1 | Nc1ncnc2c1nc(Br)n2[C@@H]1O[C@H](COP(=O)(O)OP(=O)(O)OC[C@H]2OC(O)[C@H](O)[C@@H]2O)[C@@H](O)[C@H]1O (stereo partly drawn) [8-Br-ADPR] | 1400 | 8-Br-ADPR and 8-Br-cADPR reduce the ADPR-induced current in TRPM2-expressing HEK293 cells
2 | Nc1ncnc2c1ncn2[C@@H]1O[C@H](COP(=O)(O)OP(=O)(O)OC[C@H]2OC(O)[C@H](O)[C@@H]2O)[C@@H](O)[C@H]1O (stereo partly drawn) [ADPR] | 2200 | –
